Measurements reported in patent publication US9061352B2, “Dry powder formulations and methods for treating pulmonary diseases” (priority 2010, dated 2015).

Tests used:
Type in all cases: physicochemical
[1] = Heat of solution in HBSS buffer; conditions: for ΔH (kJ/mol), Average / ΔH (kcal/mol), Average / heat of solution ΔH: HBSS buffer; for ΔH (kJ/mol), Average / ΔH (kcal/mol), Average: per mol Ca for all powders except leucine (mol Leu); for ΔH (kJ/mol), Average / ΔH (kcal/mol), Average / Q (cal), Average / ΔT (deg. C.), Average: experiment #1; for Q (cal), Average / ΔT (deg. C.), Average: dissolution in HBSS buffer
[2] = Emitted geometric particle size from dry powder inhaler by Spraytec (Dv50, GSD, FPF<5 μm); conditions: for average Dv50: 9.2 Joules; for Dv50: measured lower energies
From the text: (§1) Volume median diameter can also be measured using a method where the powder is emitted from a dry powder inhaler device. The equipment consisted of a Spraytec laser diffraction particle size system (Malvern, Worcestershire, UK), “Spraytec”. Powder formulations were filled into size 3 HPMC capsules (Capsugel V-Caps) by hand with the fill weight measured gravimetrically using an analytical balance (Mettler Tolerdo XS205). A capsule based passive dry powder inhalers (RS-01 Model 7, High resistance Plastiape S.p.A.) was used which had specific resistance of 0.036 kPa^1/2 LPM^−1. Flow rate and inhaled volume were set using a timer controlled solenoid valve with flow control valve (TPK2000, Copley Scientific). Capsules were placed in the dry powder inhaler, punctured and the inhaler sealed to the inlet of the laser diffraction particle sizer. The steady air flow rate through the system was initiated using the TPK2000 and the particle size distribution was measured via the Spraytec at 1 kHz for at least 2 seconds and up to the total inhalation duration. Particle size distribution parameters calculated included the volume median diameter (Dv50) and the geometric standard deviation (GSD) and the fine particle fraction (FPF) of particles less than 5 micrometers in diameter. At the completion of the inhalation duration, the dry powder inhaler was opened, the capsule removed and re-weighed to calculate the mass of powder that had been emitted from the capsule during the inhalation duration (capsule emitted powder mass or CEPM).
The previous description of the use of the Spraytec was for what is described as its “closed bench configuration”. Alternatively, the Spraytec can be used in its “open bench configuration”. In the open bench configuration, capsules were placed in the dry powder inhaler, punctured and the inhaler sealed inside a cylinder. The cylinder was connected to a positive pressure air source with steady air flow through the system again measured with a mass flow meter and its duration controlled with a timer controlled solenoid valve. The exit of the dry powder inhaler was exposed to room pressure and the resulting aerosol jet passed through the laser of the diffraction particle sizer (Spraytec) in its open bench configuration before being captured by a vacuum extractor. The steady air flow rate through the system was initiated using the solenoid valve and the particle size distribution was measured via the Spraytec at 1 kHz for the duration of the single inhalation maneuver with a minimum of 2 seconds, as in the closed bench configuration. When data are reported in the examples as being measured by the Spraytec, they are from the closed bench configuration unless otherwise noted.
The volume median diameter (Dv50) of the powder after it emitted from a dry powder inhaler, which may also be referred to as volume median geometric diameter (VMGD), was determined using a laser diffraction technique via the Spraytec diffractometer (Malvern, Inc., Worcestershire, UK). Powder was filled into size 3 capsules (V-Caps, Capsugel) and placed in a capsule based dry powder inhaler (RS01 Model 7 High resistance, Plastiape, Italy), or DPI, which was connected with an airtight seal to the inhaler adapter of the Spraytec. A steady airflow rate was drawn through the DPI typically at 60 L/min for a set duration, typically of 2 seconds controlled by a timer controlled solenoid (TPK2000, Copley, Scientific, UK). Alternatively, the airflow rate drawn through the DPI was sometimes run at 15 L/min, 20 L/min, or 30 L/min. The outlet aerosol then passed perpendicularly through the laser beam as an internal flow. The resulting geometric particle size distribution of the aerosol was calculated from the software based on the measured scatter pattern on the photodetectors with samples typically taken at 1000 Hz for the duration of the inhalation. The Dv50, GSD, FPF<5.0 μm measured were then averaged over the duration of the inhalation. […]

[3] = Capsule emitted powder mass (CEPM) from dry powder inhaler; conditions: for average CEPM, % of capsule fill weight: 9.2 Joules (60 L/min for 2 L), high resistance RS-01
From the text: as §1
A measure of the emission properties of the powders was determined by using the information obtained from the Andersen Cascade Impactor tests. The filled capsule weight was recorded at the beginning of the run and the final capsule weight was recorded after the completion of the run. The difference in weight represented the amount of powder emitted from the capsule (CEPM or capsule emitted powder mass). The emitted dose was calculated by dividing the amount of powder emitted from the capsule by the total initial particle mass in the capsule. While the standard CEPM was measured at 60 L/min, it was also measured at 15 L/min, 20 L/min, or 30 L/min.
Powder formulations were filled into size 3 HPMC capsules (Capsugel V-Caps) by hand with the fill weight measured gravimetrically using an analytical balance (Mettler Tolerdo XS205). […] Two capsule based passive dry powder inhalers (RS-01 Model 7, Low resistance Plastiape S.p.A. and RS-01 Model 7, High resistance Plastiape S.p.A.) were used which had specific resistances of 0.020 and 0.036 kPa1/2/LPM which span the typical range of dry powder inhaler resistance. Flow rate and inhaled volume were set using a timer controlled solenoid valve with flow control valve (TPK2000, Copley Scientific). Capsules were placed in the appropriate dry powder inhaler, punctured and the inhaler sealed to the inlet of the laser diffraction particle sizer (Spraytec, Malvern). The steady air flow rate through the system was initiated using the TPK2000 and the particle size distribution was measured via the Spraytec at 1 kHz for the durations at least 2 seconds and up to the total inhalation duration. Particle size distribution parameters calculated included the volume median diameter (Dv50) and the geometric standard deviation (GSD) and the fine particle fraction (FPF) of particles less than 5 micrometers in diameter. At the completion of the inhalation duration, the dry powder inhaler was opened, the capsule removed and re-weighed to calculate the mass of powder that had been emitted from the capsule during the inhalation duration. At each testing condition, 5 replicate capsules were measured and the results of Dv50, FPF and capsule emitted powder mass (CEPM) were averaged. […]

[4] = Fine particle fraction by two-stage collapsed Andersen Cascade Impactor (ACI-2); conditions: spray dried from 70% ethanol, 50 g/L
[5] = Volume median diameter (x50) and dispersibility ratios by HELOS/RODOS laser diffraction
Procedure: Volume median diameter (×50 or Dv50), which may also be referred to as volume median geometric diameter (VMGD), was determined using a laser diffraction technique. The equipment consisted of a HELOS diffractometer and a RODOS dry powder disperser (Sympatec, Inc., Princeton, N.J.). The RODOS disperser applies a shear force to a sample of particles, controlled by the regulator pressure (typically set at 1.0 bar) of the incoming compressed dry air. The pressure settings may be varied to vary the amount of energy used to disperse the powder. For example, the regulator pressure may be varied from 0.2 bar to 4.0 bar; and the orifice ring pressure may be varied from 5.00 mbar to 115.00 mbar. Powder sample is dispensed from a microspatula into the RODOS funnel. The dispersed particles travel through a laser beam where the resulting diffracted light pattern produced is collected, typically using an R1 lens, by a series of detectors. The ensemble diffraction pattern is then translated into a volume-based particle size distribution using the Fraunhofer diffraction model, on the basis that smaller particles diffract light at larger angles. Using this method geometric standard deviation (GSD) for the volume mean geometric diameter was also determined.

[6] = RS.01.HR, fill 25 mg, 15 LPM, 4 s, 0.29 J
[7] = RS.01.HR, fill 25 mg, 20 LPM, 3 s, 0.51 J
[8] = RS.01.HR, fill 25 mg, 30 LPM, 2 s, 1.15 J
[9] = RS.01.HR, fill 25 mg, 60 LPM, 2 s, 9.18 J
[10] = RS.01.HR, fill 40 mg, 15 LPM, 4 s, 0.29 J
[11] = RS.01.HR, fill 40 mg, 20 LPM, 3 s, 0.51 J
[12] = RS.01.HR, fill 40 mg, 30 LPM, 2 s, 1.15 J
[13] = RS.01.HR, fill 40 mg, 60 LPM, 2 s, 9.18 J
[14] = RS.01.LR, fill 25 mg, 60 LPM, 2 s, 2.85 J
[15] = RS.01.LR, fill 40 mg, 60 LPM, 2 s, 2.85 J
[16] = all measured energies below 9.2 Joules, 25 and 40 mg fill

Compound: CC(C)C[C@H](N)C(=O)O [Leucine]
- ΔH (kJ/mol), Average [1]: -6 kJ/mol
- ΔH (kcal/mol), Average [1]: -1.5 kcal/mol
- Q (cal), Average [1]: 0.37 cal
- ΔT (deg. C.), Average [1]: 0.003 deg. C.

Compound: O.O.[Ca+2].[Cl-].[Cl-] [raw calcium chloride dihydrate, calcium chloride dihydrate]
- heat of solution ΔH ([1]; first experiment): -12.1 kcal/mol
- heat of solution ΔH ([1]; second experiment): -8.4 kcal/mol

Compound: albuterol sulfate [Micronized Albuterol]
- average Dv50 ([2]; 25 mg fill): 1.8 μm
- Dv50 ([2]; 25 mg fill): 3.9 μm
- average Dv50 ([2]; 40 mg fill): 1.6 μm
- Dv50 ([2]; 40 mg fill): 3.1 μm
- Mean Dv(50) (μm) [2, 6]: 16.76 μm
- Mean FPF, % <5 μm [2, 6]: 13.00%
- Mean Dv(50) (μm) [2, 7]: 8.40 μm
- Mean FPF, % <5 μm [2, 7]: 32.10%
- Mean Dv(50) (μm) [2, 8]: 3.86 μm
- Mean FPF, % <5 μm [2, 8]: 59.44%
- Mean Dv(50) (μm) [2, 9]: 1.77 μm
- Mean FPF, % <5 μm [2, 9]: 81.65%
- Mean Dv(50) (μm) [2, 10]: 17.63 μm
- Mean FPF, % <5 μm [2, 10]: 10.73%
- Mean Dv(50) (μm) [2, 11]: 6.34 μm
- Mean FPF, % <5 μm [2, 11]: 42.24%
- Mean Dv(50) (μm) [2, 12]: 3.13 μm
- Mean FPF, % <5 μm [2, 12]: 67.18%
- Mean Dv(50) (μm) [2, 13]: 1.60 μm
- Mean FPF, % <5 μm [2, 13]: 84.30%
- Mean Dv(50) (μm) [2, 14]: 2.57 μm
- Mean FPF, % <5 μm [2, 14]: 75.01%
- Mean Dv(50) (μm) [2, 15]: 2.62 μm
- Mean FPF, % <5 μm [2, 15]: 73.98%
- average CEPM, % of capsule fill weight ([3]; 25 mg fill): 93%
- average CEPM, % of capsule fill weight ([3]; 40 mg fill): 84%
- Mean CEPM [3, 6]: 3.12 mg
- Mean CEPM [3, 7]: 5.00 mg
- Mean CEPM [3, 8]: 7.08 mg
- Mean CEPM [3, 9]: 23.18 mg
- Mean CEPM [3, 10]: 2.43 mg
- Mean CEPM [3, 11]: 4.97 mg
- Mean CEPM [3, 12]: 8.55 mg
- Mean CEPM [3, 13]: 33.40 mg
- Mean CEPM [3, 14]: 15.28 mg
- Mean CEPM [3, 15]: 18.88 mg
- CEPM [3, 16]: below 10 mg
- CEPM, % of capsule fill weight [3, 16]: < 30%

Compound: O.O.[Ca+2].[Cl-].[Cl-] [CaCl2•2H2O]
- ΔH (kJ/mol), Average [1]: -50.5 kJ/mol
- ΔH (kcal/mol), Average [1]: -12.1 kcal/mol
- Q (cal), Average [1]: 2.93 cal
- ΔT (deg. C.), Average [1]: 0.024 deg. C.

Compound: [Cl-].[Cl-].[Mg+2] [Pure magnesium chloride, magnesium chloride]
- fine particle fraction less than 5.6 microns [4]: 19%
- median volume particle size ([5]; spray dried from 70% ethanol, 50 g/L): 4 microns
- median particle size ([5]; spray dried from D.I. water, 20 g/L): 21 microns
